Experimental data as given in patent US12310380B2, “Method for extending shelf-life of agricultural produce” (National Institute of Plant Genome Research, priority 2019, dated 2025).

System: Nanjungud rasbale banana
Experiment: Ripening of banana: NO donors versus hypoxia-induced NO
Type: in vivo
Details: SNAP 100 μM, chitosan 1%
Description: Effects of using hypoxia-induced NO on fruit ripening were tested against the available NO donors such as SNP (Sodium nitroprusside), SNAP (S-Nitroso-N-acetyl-dl-penicillamine), chitosan on Nanjungud rasbale banana. Physiological concentrations of NO donors were used and the concentration for SNP used was 1 mM, SNAP was used in a concentration of 100 μM, chitosan was used in a concentration of 1%. Out of all the treatments, hypoxia-induced NO yielded better results where a significant delay of ripening was observed (Table-1). SNP and chitosan were effective up to 2 days but later they were ineffective on delaying ripening. Even after 3 days of treatment only one fruit ripened in the presence of formula in comparison to other treatments where 60% of fruits were ripened (FIG. 10). […] It was observed that the delay in ripening of bananas by the method of the present disclosure was 7 days as compared to the bananas which were not treated by the method of the present disclosure.

Structure (SMILES): CC(=O)NC(C(=O)O)C(C)(C)SN=O (racemic) [SNAP, S-Nitroso-N-acetyl-dl-penicillamine]
- Number of fruits ripened (Day 0, SNP 1 mM): 0
- Number of fruits ripened (Day 1, SNP 1 mM): 0
- Number of fruits ripened (Day 2, SNP 1 mM): 2
- Number of fruits ripened (Day 3, SNP 1 mM): 4
